Assay results reported in paper PMC6147803 (Acta Pharmaceutica Sinica. B, 2018).

Target: T1, PTP1B (Homo sapiens, UniProt P18031)
T1 sequence (P18031 1-435): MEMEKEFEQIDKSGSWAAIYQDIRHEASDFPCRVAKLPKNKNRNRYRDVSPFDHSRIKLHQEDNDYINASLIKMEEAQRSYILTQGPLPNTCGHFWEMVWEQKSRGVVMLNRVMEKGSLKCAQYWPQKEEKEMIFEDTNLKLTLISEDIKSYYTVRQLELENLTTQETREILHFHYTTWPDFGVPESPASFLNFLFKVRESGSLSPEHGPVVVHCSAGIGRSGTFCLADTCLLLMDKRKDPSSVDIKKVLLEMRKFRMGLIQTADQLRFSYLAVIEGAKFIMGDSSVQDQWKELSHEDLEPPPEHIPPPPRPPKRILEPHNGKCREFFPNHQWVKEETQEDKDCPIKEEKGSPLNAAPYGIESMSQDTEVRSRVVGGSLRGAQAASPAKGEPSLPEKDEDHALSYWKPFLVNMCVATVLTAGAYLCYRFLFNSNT
Assay: p-NPP dephosphorylation end-point assay at […] nm, […] compound
Format: biochemical
Details: read-out: % inhibition at 10 μmol/L

Compound `COc1c(O)ccc(/C=C/C(=O)O)c1SC[C@@H](O)C(=O)O` [compound 1, (S)-2-(2-carboxyl-2-hydroxyethylthio)-ferulic acid] has an inhibition at 10 µM of 19.6%.
